# Experimental data: US12465648B2, “Heterobifunctional compounds as degraders of HPK1” (ICAHN SCHOOL OF MEDICINE AT MOUNT SINAI, priority 2019, dated 2025)
# How the values were obtained:
# primary murine T cells [1] = assay: Proliferation of primary murine T cells; type: cell-based, mouse
# Procedure: (§1) EXAMPLE 348. Several compounds according to the present invention employing the indolin-2-one HPK1 binding base, (which henceforth shall be referred to as the HC58 series, the HC65 series and the HC75 series) were assessed on their abilities to degrade HPK1 and produce an elevated IL-2 response profile upon stimulation by anti-CD3- and anti-CD28-mAb-mediated (CD3XCD28) stimulation (FIGS. 1-4). The elevated IL-2 response profile induced by TCR engagement after exposure to HC58 series of HPK1 degraders is shown in FIG. 1. […] A select sub-set of the lead HPK1 degraders from the HC58 series were further characterized to determine whether they could degrade primary mouse T cells.
# human PBMCs = assay: Intracellular IFNγ and TNFα staining of human PBMC (FACS); type: cell-based; settings: in combination with blinatumomab
# Source text: EXAMPLE 355. One of the mechanisms employed by PBMC to kill their target cells is by releasing IFNγ and TNFα production. These inflammatory cytokines are known have potent cytolytic effects on cancer cells. […] Mediated PBMC killing of the Raji cells is most evident at PBMC:Raji ratio of 5:1 (FIG. 13).
# To determine the number of CD19^+ Raji cells killed by human PBMC that were activated by the Blinatumomab-mediated activation, we used CountBright cell counting beads to estimate the number of cells remained after 72 hours of co-culturing of PBMC and Raji. As for the intracellular staining of the TNFα and the IFNγ, the standard para-formaldehyde-based “fix and perm” procedure was used in order to quantitate the amount of intracellular cytokine trapped inside the cells by brefeldin A. FACS analysis of stained cells is performed by BD's LSR II FACS.
# HPK1 [2] = molecular target: T1, HPK1 (Homo sapiens, UniProt Q92918); assay: Western blot analysis of endogenous HPK1 level in Jurkat T cells; type: cell-based
# T1 construct: endogenous in cells; host or cells: Jurkat T cells
# T1 sequence (Q92918 whole entry): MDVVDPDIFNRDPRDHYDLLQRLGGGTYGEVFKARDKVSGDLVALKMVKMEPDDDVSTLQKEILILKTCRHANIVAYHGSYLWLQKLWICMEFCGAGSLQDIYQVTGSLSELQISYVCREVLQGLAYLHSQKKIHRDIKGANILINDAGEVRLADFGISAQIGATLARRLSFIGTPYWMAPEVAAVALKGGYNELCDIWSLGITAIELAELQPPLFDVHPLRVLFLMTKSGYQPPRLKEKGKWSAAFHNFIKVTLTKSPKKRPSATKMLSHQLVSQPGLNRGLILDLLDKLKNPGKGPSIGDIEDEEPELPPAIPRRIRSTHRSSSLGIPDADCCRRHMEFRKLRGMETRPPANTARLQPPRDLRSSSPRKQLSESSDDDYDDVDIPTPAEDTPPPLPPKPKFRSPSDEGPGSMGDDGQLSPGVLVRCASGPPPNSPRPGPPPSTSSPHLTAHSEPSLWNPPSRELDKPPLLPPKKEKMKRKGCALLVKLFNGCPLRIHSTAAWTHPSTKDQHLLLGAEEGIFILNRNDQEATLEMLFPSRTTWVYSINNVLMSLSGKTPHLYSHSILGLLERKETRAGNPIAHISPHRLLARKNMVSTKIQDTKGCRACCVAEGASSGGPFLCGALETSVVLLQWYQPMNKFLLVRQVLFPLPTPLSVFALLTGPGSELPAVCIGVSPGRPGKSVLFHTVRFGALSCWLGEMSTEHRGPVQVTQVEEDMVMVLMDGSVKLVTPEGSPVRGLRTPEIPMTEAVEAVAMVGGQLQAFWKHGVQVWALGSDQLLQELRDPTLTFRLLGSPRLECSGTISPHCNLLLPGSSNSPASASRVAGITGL
# CD4+eGFP+ Tregs = assay: IL-2 production by regulatory T cells (Tregs) on CD3XCD28 stimulation (IL-2 ELISA); type: cell-based, mouse; settings: compared with HPK1-/- Tregs
# Source text: EXAMPLE 350. It was observed that HPK1^−/− regulatory T cells (Treg), unlike their wild type counterparts, could readily produce IL-2 in response to CD3XCD28 stimulation. Taking advantage of the FoxP3-driven eGFP reporter mice that express eGFP only in the FoxP3^+ regulatory T cells (Tregs), bonafide Tregs were purified from spleens and lymph nodes by FACS-assisted sorting of CD4^+eGFP^+ Tregs and used as the source of ex vivo functional studies. The ability of the wild type Treg, the HPK1^−/− Tregs and the HC58-78-treated wild type Tregs to produce IL-2 in response to CD3XCD28 stimulation was compared. […] Wild type regulatory T cells could not produce the IL-2 in response to the same stimulation due to the transcriptional repression of the IL-2 locus by the FoxP3 transcription factor (FIG. 7, the white histogram bar).
# primary GFP+ Tregs = assay: IL-2 production by primary GFP+ Tregs in response to TCR engagement; type: cell-based; settings: stimulation by TCR engagement (FIG. 7)
# primary murine T cells [3] = assay: IL-2 production by primary murine T cells; type: cell-based, mouse
# Procedure: as §1
# HPK1 [4] = molecular target: T2, HPK1 (Mus musculus, UniProt P70218); assay: HPK1 degradation in primary mouse T cells; type: cell-based; settings: 300 nM
# T2 construct: HPK1 degraders could effectively degrade endogenous HPK1 in murine T cells; endogenous in cells; host or cells: primary mouse T cells
# T2 sequence (P70218 1-827): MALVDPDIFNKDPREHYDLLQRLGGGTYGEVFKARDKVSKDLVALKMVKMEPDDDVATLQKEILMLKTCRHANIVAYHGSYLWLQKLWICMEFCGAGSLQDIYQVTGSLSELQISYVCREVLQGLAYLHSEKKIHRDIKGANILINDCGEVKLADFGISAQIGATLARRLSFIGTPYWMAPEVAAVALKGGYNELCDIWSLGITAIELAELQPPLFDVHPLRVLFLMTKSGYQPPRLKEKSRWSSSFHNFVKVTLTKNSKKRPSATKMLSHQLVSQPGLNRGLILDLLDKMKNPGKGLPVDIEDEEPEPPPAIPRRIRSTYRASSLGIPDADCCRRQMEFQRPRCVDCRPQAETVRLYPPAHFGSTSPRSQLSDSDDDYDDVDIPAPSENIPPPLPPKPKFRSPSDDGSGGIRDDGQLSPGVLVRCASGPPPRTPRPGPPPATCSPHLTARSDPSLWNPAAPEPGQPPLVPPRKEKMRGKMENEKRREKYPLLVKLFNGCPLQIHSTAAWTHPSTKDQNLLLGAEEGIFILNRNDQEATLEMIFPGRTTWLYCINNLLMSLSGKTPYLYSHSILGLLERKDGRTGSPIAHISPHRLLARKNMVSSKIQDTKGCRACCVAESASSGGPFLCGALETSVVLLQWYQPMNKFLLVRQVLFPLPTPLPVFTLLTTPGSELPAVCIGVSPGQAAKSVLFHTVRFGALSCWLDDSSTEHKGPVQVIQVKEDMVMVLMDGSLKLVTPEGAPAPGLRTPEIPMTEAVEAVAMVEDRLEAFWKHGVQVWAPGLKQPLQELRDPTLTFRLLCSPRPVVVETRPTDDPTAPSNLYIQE
# Procedure: as §1
# EXAMPLE 353. HPK1 is expressed in all hematopoietic cells examined to date, including T cells, B cells, dendritic cells and neutrophils. Because the breath of therapeutic approaches might involve the use of Chimeric Antigen Receptor (CAR) T cells, dendritic cells, TCR transgenic T cells and Tumor Infiltrating Lymphocytes (TILs), selected HPK1 degraders were evaluated to determine whether they could degrade HPK1 effectively in some of these cell types. […] Potent degradation of HPK1 by HPK1 degraders was also observed in the human DC1 dendritic cells.
smiles,measurement,setting,value
"Cc1[nH]c(/C=C2\C(=O)Nc3ccc(F)cc32)c(C)c1C(=O)NCCCN1CCN(CC(=O)NCCCCCCCCNc2cccc3c2C(=O)N(C2CCC(=O)NC2=O)C3=O)CC1 (centres unmarked) [HC58-78, (Z)—N-(3-(4-(2-((8-((2-(2,6-dioxopiperidin-3-yl)-1,3-dioxoisoindolin-4-yl)amino)octyl)amino)-2-oxoethyl)piperazin-1-yl)propyl)-5-((5-fluoro-2-oxoindolin-3-ylidene)methyl)-2,4-dimethyl-1H-pyrrole-3-carboxamide]",proliferation compared with the DMSO-treated counterpart,primary murine T cells [1],proliferate much more quickly than the DMSO-treated counterpart
same,percentage of human PBMCs that express high level of IFNγ and TNFα,human PBMCs,significantly increased
same,endogenous level of HPK1,"HPK1 [2]; Jurkat T cells, multiple day post exposure (FIG. 3)",could reduce the endogenous level of HPK1
same,reducing HPK1 protein levels,HPK1 [2]; characterization of exemplary degraders (FIGS. 1-14),especially effective in reducing HPK1 protein levels
same,IL-2 production by treated wild type Tregs,CD4+eGFP+ Tregs,produced IL-2 at level comparable to that produced by HPK1^−/− Tregs
same,IL-2 production,primary GFP+ Tregs,elevated IL-2 production
same,IL-2 production compared with the DMSO-treated counterpart,primary murine T cells [3],produced more IL-2 than the DMSO-treated counterpart
same,degradation of HPK1 protein in primary T cells compared with Jurkat T cells,HPK1 [4],could degrade more HPK1 protein in primary T cells than in Jurkat T cells
